# Source: ChEMBL document CHEMBL5131467, “Multivalent peptide dendrimers inhibit the fusion of viral-cellular membranes and the cellular NF-κB signaling pathway” (Eur J Med Chem, 2022)
# Calls of active or inactive are those of the source. The calls are words filed in the database; no cut-off is given here. Where a SMILES comes first, the peptide text is derived from it. Bridges are numbered along the chain shown (N, C = ends). Roman numbers before positions name the chains, in order. Side-chain parts run from the residue outwards. The star is where a group is joined. Acetyl(2-naphthyl) = O=C(Cc1ccc2ccccc2c1)*
# Assays:
# [1] = Cytotoxicity against MDCK cells by CCK-8 assay; type: toxicity, cell-based, Canis lupus familiaris; settings: dog
# [2] = Selectivity index, ratio of CC50 for MDCK cells to IC50 antiviral activity against Influenza A virus (A/Puerto Rico/8/1934(H1N1)) infected in MDCK cells assessed as reduction in virus induced cytopathic effect pre-treated with virus; type: toxicity, cell-based; settings: dog, read-out: Selectivity Index
# Influenza A virus [3] = test: Antiviral activity against Influenza A virus (A/Puerto Rico/8/1934(H1N1)) infected in MDCK cells assessed as reduction in virus induced cytopathic effect pre-treated with virus followed by cell infection for 1 hr by MTT assay; type: functional, organism-based
# Influenza A virus [4] = test: Antiviral activity against Influenza A virus (A/Puerto Rico/8/1934(H1N1)) infected in MDCK cells assessed as reduction in virus induced cytopathic effect pretreated with compound incubated for 1 hrs by MTT assay; type: functional, organism-based
# [5] = Cytotoxicity against MDCK cells incubated for 1 hr by MTT assay; type: toxicity, cell-based, Canis lupus familiaris; settings: dog
# Influenza A virus [6] = test: Antiviral activity against Influenza A virus (A/Puerto Rico/8/1934(H1N1)) infected in MDCK cells assessed as reduction in virus induced cytopathic effect during infection incubated for 1 hr by MTT assay; type: functional, organism-based
# Influenza A virus [7] = test: Antiviral activity against Influenza A virus (A/Puerto Rico/8/1934(H1N1)) infected in MDCK cells assessed as reduction in virus induced cytopathic effect after infection incubated for 1 hr by MTT assay; type: functional, organism-based
# Influenza B virus = test: Antiviral activity against Influenza B virus 699[…] clinical isolate infected in MDCK cells incubated for 1 hr by MTT assay; type: functional, organism-based
# RAW264.7 [8] = test: Anti-inflammatory activity against mouse RAW264.7 cells assessed as reduction in LPS induced TNF alpha level at 5 ug/ml by ELISA method; type: functional; settings: dose 5 µg/ml
# Influenza A virus [9] = test: Antiviral activity against Influenza A virus 699(H3) clinical isolate infected in MDCK cells incubated for 1 hr by MTT assay; type: functional, organism-based
# Influenza A virus [10] = test: Antiviral activity against Influenza A virus A/Aichi/2/68(H3N2) infected in MDCK cells incubated for 1 hr by MTT assay; type: functional, organism-based
# RAW264.7 [11] = test: Anti-inflammatory activity against mouse RAW264.7 cells assessed as reduction in Influenza A virus (A/Puerto Rico/8/1934(H1N1)) induced TNF alpha level at 5 ug/ml by ELISA method; type: functional; settings: dose 5 µg/ml
# RAW264.7 [12] = test: Anti-inflammatory activity against mouse RAW264.7 cells assessed as reduction in LPS induced TNF alpha level at 1 ug/ml by ELISA method; type: functional; settings: dose 1 µg/ml
# RAW264.7 [13] = test: Anti-inflammatory activity against mouse RAW264.7 cells assessed as reduction in Influenza A virus (A/Puerto Rico/8/1934(H1N1)) induced TNF alpha level at 1 ug/ml by ELISA method; type: functional; settings: dose 1 µg/ml
# Influenza A virus [14] = test: Antiviral activity against Influenza A virus A/FM/1/47 infected in MDCK cells incubated for 1 hr by MTT assay; type: functional, organism-based; settings: A/FM/1/47, MDCK
# Influenza A virus [15] = test: Antiviral activity against Influenza A virus (A/Puerto Rico/8/1934(H1N1)) infected in MDCK cells assessed as reduction in HA mRNA level at 1 ug/ml measured after 24 hrs post infection by qRT-PCR analysis; type: functional, organism-based; settings: dose 1.0 µg/ml
# Mus musculus [16] = test: Antiviral activity against Kunming mouse infected with Influenza A virus (A/Puerto Rico/8/1934(H1N1)) assessed as survival rate at 5 mg/kg, ip administered once a day for 5 days relative to control; type: functional; settings: 120 h, time 5 day
# RAW264.7 [17] = test: Anti-inflammatory activity against Influenza A virus (A/Puerto Rico/8/1934(H1N1)) induced mouse RAW264.7 cells assessed as suppression of NF kappa B expression level 5 ug/ml by luciferase reporter assay; type: functional, cell-based; settings: dose 5.0 µg/ml
# RAW264.7 [18] = test: Anti-inflammatory activity against mouse RAW264.7 cells assessed as reduction in LPS induced TNF alpha level at 5 ug/ml by qRT-PCR analysis; type: functional, cell-based; settings: dose 5.0 µg/ml
# RAW264.7 [19] = test: Anti-inflammatory activity against LPS induced mouse RAW264.7 cells assessed as suppression of NF kappa B expression level at 5 ug/ml by luciferase reporter assay; type: functional, cell-based; settings: dose 5.0 µg/ml
# RAW264.7 [20] = test: Anti-inflammatory activity against mouse RAW264.7 cells assessed as reduction in LPS induced IL-1 beta level at 5 ug/ml by qRT-PCR analysis; type: functional, cell-based; settings: dose 5.0 µg/ml
# Mus musculus [21] = test: Antiviral activity against Kunming mouse infected with Influenza A virus (A/Puerto Rico/8/1934(H1N1)) assessed as increase in body weight at 5 mg/kg, ip measured after 15 days (reference value: 178.7%); type: functional; settings: time 15 day
# RAW264.7 [22] = test: Anti-inflammatory activity against mouse RAW264.7 cells assessed as reduction in influenza A virus induced TNF alpha level at 5 ug/ml by qRT- PCR; type: functional, cell-based; settings: dose 5.0 µg/ml
# RAW264.7 [23] = test: Anti-inflammatory activity against mouse RAW264.7 cells assessed as reduction in LPS induced IL-6 level at 5 ug/ml by qRT-PCR analysis; type: functional, cell-based; settings: dose 5.0 µg/ml
# RAW264.7 [24] = test: Anti-inflammatory activity against mouse RAW264.7 cells assessed as reduction in influenza A virus induced IL-1 beta level at 5 ug/ml by qRT- PCR; type: functional, cell-based; settings: dose 5.0 µg/ml
# RAW264.7 [25] = test: Anti-inflammatory activity against mouse RAW264.7 cells assessed as reduction in influenza A virus induced IL-6 level at 5 ug/ml by qRT- PCR; type: functional, cell-based; settings: dose 5.0 µg/ml
# Hemagglutinin = Hemagglutinin (Influenza A virus, UniProt B4URE7); test: Binding affinity to Influenza A Puerto Rico/8/1934/H1N1 hemagglutin assessed as dissociation constant by surface plasmon resonance assay
# Hemagglutinin, sequence (B4URE7 whole entry): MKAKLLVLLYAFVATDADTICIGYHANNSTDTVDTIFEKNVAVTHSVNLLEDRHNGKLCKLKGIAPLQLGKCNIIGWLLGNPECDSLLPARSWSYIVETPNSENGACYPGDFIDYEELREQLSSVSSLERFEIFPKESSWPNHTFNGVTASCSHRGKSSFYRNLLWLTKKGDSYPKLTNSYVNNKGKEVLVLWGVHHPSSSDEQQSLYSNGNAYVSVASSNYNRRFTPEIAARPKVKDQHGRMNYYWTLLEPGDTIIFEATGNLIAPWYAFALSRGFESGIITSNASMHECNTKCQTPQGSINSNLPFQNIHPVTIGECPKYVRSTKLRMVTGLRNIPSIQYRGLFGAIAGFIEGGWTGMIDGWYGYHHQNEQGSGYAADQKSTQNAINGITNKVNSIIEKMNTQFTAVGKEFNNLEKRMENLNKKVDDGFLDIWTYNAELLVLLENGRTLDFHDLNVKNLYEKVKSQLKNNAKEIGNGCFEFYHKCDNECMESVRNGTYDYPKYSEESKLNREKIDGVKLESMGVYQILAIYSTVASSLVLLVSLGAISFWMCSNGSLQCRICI
# Influenza A virus [26] = test: Antiviral activity against Influenza A virus (A/Puerto Rico/8/1934(H1N1)) infected in MDCK cells assessed as reduction in M1 mRNA level at 1 ug/ml measured after 24 hrs post infection by qRT-PCR analysis; type: functional, organism-based; settings: dose 1.0 µg/ml
# Influenza A virus [27] = test: Antiviral activity against Influenza A virus (A/Puerto Rico/8/1934(H1N1)) infected in MDCK cells assessed as reduction in viral nucleoprotein expression level at 2.5 ug/ml pre-treated with virus measured after 24 hrs post infection by indirect immunofluorescence assay; type: functional, organism-based; settings: dose 2.5 µg/ml
# Influenza A virus [28] = test: Antiviral activity against Influenza A virus (A/Puerto Rico/8/1934(H1N1)) infected in MDCK cells assessed as reduction in viral nucleoprotein expression level at 2.5 ug/ml pretreated with compound measured after 24 hrs post infection by indirect immunofluorescence assay; type: functional, organism-based; settings: dose 2.5 µg/ml
# Influenza A virus [29] = test: Antiviral activity against Influenza A virus (A/Puerto Rico/8/1934(H1N1)) infected in MDCK cells assessed as reduction in viral nucleoprotein expression level at 2.5 ug/ml during infection measured after 24 hrs post infection by indirect immunofluorescence assay; type: functional, organism-based; settings: dose 2.5 µg/ml
SMILES,CC50 [1] [nM],selectivity ratio [2],IC50 (Influenza A virus [3]) [nM],IC50 (Influenza A virus [4]) [nM],CC50 at 1 h [5] [nM],IC50 (Influenza A virus [6]) [nM],IC50 (Influenza A virus [7]) [nM],IC50 (Influenza B virus) [nM],IC50 (Influenza A virus [9]) [nM],IC50 (Influenza A virus [10]) [nM],IC50 (Influenza A virus [14]) [nM],other results
CC(C)CCC[C@@H](C)[C@H]1CC[C@H]2[C@@H]3CC=C4C[C@@H](OC(=O)CN[C@@H](CCCCN)C(=O)N[C@@H](CCCCN)C(=O)N[C@@H](Cc5c[nH]c6ccccc56)C(=O)N[C@@H](CCCCN)C(N)=O)CC[C@]4(C)[C@H]3CC[C@]12C,39100,30.5,1610,> 10000,44300,> 5000,> 10000,,,,,
CCOC(=O)c1c(CSc2ccccc2)n(C)c2cc(Br)c(O)c(CN(C)C)c12.Cl,,91.4,360,,32900,,,410,1560,1180,1450,Activity (RAW264.7 [8]): 400.5 pg/mL; Activity (RAW264.7 [11]): 294.9 pg/mL; Activity (RAW264.7 [12]): 320.5 pg/mL; Activity (RAW264.7 [13]): 206.5 pg/mL
NCCCC[C@H](NC(=O)Cc1ccc2ccccc2c1)C(=O)N[C@@H](CCCCN)C(=O)N[C@@H](Cc1c[nH]c2ccccc12)C(=O)N[C@@H](CCCCN)C(=O)NCCCC[C@H](NC(=O)[C@H](CCCCN)NC(=O)[C@H](Cc1c[nH]c2ccccc12)NC(=O)[C@H](CCCCN)NC(=O)[C@H](CCCCN)NC(=O)Cc1ccc2ccccc2c1)C(=O)NCCCC[C@H](NC(=O)[C@H](CCCCNC(=O)[C@H](CCCCN)NC(=O)[C@H](Cc1c[nH]c2ccccc12)NC(=O)[C@H](CCCCN)NC(=O)[C@H](CCCCN)NC(=O)Cc1ccc2ccccc2c1)NC(=O)[C@H](CCCCN)NC(=O)[C@H](Cc1c[nH]c2ccccc12)NC(=O)[C@H](CCCCN)NC(=O)[C@H](CCCCN)NC(=O)Cc1ccc2ccccc2c1)C(=O)NCC(=O)O (I: {Acetyl(2-naphthyl)}-KKWKK([Lys-Trp-Lys-Lys-Acetyl(2-naphthyl)])KG-OH / II: {Acetyl(2-naphthyl)}-KKWKK([Lys-Trp-Lys-Lys-Acetyl(2-naphthyl)]); amide I:6-II:C),4410,35.5,190,340,6670,240,7690,220,210,330,230,Activity (Influenza A virus [15]): Active; survival at 5 mg/kg (Mus musculus [16]): 40%; Activity (RAW264.7 [17]): Active; Activity (RAW264.7 [18]): Active; Activity (RAW264.7 [19]): Active; Activity (RAW264.7 [20]): Active; Activity (Mus musculus [21]): 135.8%; Activity (RAW264.7 [22]): Active; Activity (RAW264.7 [23]): Active; Activity (RAW264.7 [24]): Active; Activity (RAW264.7 [25]): Active; Kd (Hemagglutinin): 0.00742 nM; Activity (Influenza A virus [26]): Active; Activity (Influenza A virus [27]): Active; Activity (Influenza A virus [28]): Active; Activity (Influenza A virus [29]): Active
NCCCC[C@H](NC(=O)[C@H](Cc1c[nH]c2ccccc12)NC(=O)[C@H](CCCCN)NC(=O)[C@H](CCCCN)NC(=O)Cc1ccc2ccccc2c1)C(=O)O ({Acetyl(2-naphthyl)}-KKWK-OH),200000,,4040,,> 200000,,,,,,,
